# Starred links: 1 amine or outer side, 2 acyl side, 3 side chain; linkers in the order of their positions; H or OH if unused. Residues, ends and D or L forms follow the SMILES beside them. *: point of attachment. AFC = O=c1cc(C(F)(F)F)c2ccc(N*)cc2o1; Suc = O=C(CCC(=O)[*:2])[*:1]
# System: T. solium purified cysteine protease
# Experiment: Human IgG degradation, western blot (Step IV)
# Format: biochemical, Taenia solium
# Conditions: overnight, 37°C, 18 hrs
# Description: To conduct this assessment, a western blot was performed. IgG digestion was detected by incubating 20 ul of T. solium purified enzyme or T. […] extract with 1 ug of human IgG (Sigma, St. Louis) in a final volume of 100 ul of assay buffer. Exogenous thiol activation was assessed by incubating the assay in the presence or absence of cysteine. The catalytic class of the IgG protease was determined by pre-incubating the following proteinase inhibitors at their active concentrations, with the enzyme: E 64 (10^-6 M , cysteine proteinases), phenylmethylsulfonyl fluoride (PMSF) (10^-3 M, serine proteinases), pepstatin A (10^-6M, aspartic proteinases), and 1,10 phenanthroline (10^-3 M, metalloproteinases), and the vehicle, Mu-Leu-Tyr-AFC (10^-3 M). After addition of IgG, the assay was incubated overnight (37°C, 18 hrs). Subsequently, 100 ul of the mixture was boiled in sodium dodecyl sulfate polyacrylamide gel electrophoresis (SDS-PAGE) sample buffer with 2% 2-mercaptoethanol, separated by 12.5% SDS-PAGE, and blotted onto a polyvinylidene difluoride membrane. Tris buffered saline containing 0.1 % bovine serum albumin and 0.05% Tween 20 (TBS-BSA) was used to block nonspecific binding. […]
structure (smiles),measurement,value
"CC(C)CC(NC(=O)C1OC1C(=O)O)C(=O)NCCCCNC(=N)N (centres unmarked) [E64, reference compound]",inhibition of cleavage of human IgG,Inhibition was noted
CC(C)C[C@H](NC(=O)CCC(=O)O)C(=O)N[C@@H](Cc1ccc(O)cc1)C(=O)Nc1ccc2c(C(F)(F)F)cc(=O)oc2c1 [suc-Leu-Tyr-AFC] (Suc-Leu-Tyr-{AFC}),inhibition of cleavage of human IgG,ability to inhibit

# — patent publication EP1379634B1 (THE UNIVERSITY OF GEORGIA RESEARCH FOUNDATION, INC., priority 2001, dated 2002)
